Experimental data taken from the supplement of paper PMC10307832.

Key:
Assay in all cases: relative viability (nuclei count vs DMSO), 5 days (fraction); higher = more cells survive
201T = system: 201T
How it was run: (§1)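 Relative viability is defined as nuclei in treated wells over nuclei in vehicle wells. Duplicate plates were run and medians reported. Lung cancer cell lines in 1536-well plates were dosed by pin tool one day after seeding, with one drug or with a fixed anchor-drug dose plus five library-drug doses (not always all listed) in √10 steps, and nuclei were counted after 5 days.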

BEN = system: BEN
How it was run: as §1

COR-L 105 = system: COR-L 105
How it was run: as §1

EKVX = system: EKVX
How it was run: as §1

EPLC-272H = system: EPLC-272H
How it was run: as §1

H3255 = system: H3255
How it was run: as §1

HCC-44 = system: HCC-44
How it was run: as §1

HCC-827 = system: HCC-827
How it was run: as §1

HOP-62 = system: HOP-62
How it was run: as §1

LCLC-97TM1 = system: LCLC-97TM1
How it was run: as §1

LOU-NH91 = system: LOU-NH91
How it was run: as §1

LU99A = system: LU99A
How it was run: as §1

NCI-H1395 = system: NCI-H1395
How it was run: as §1

NCI-H1437 = system: NCI-H1437
How it was run: as §1

NCI-H1666 = system: NCI-H1666
How it was run: as §1

NCI-H1975 = system: NCI-H1975
How it was run: as §1

NCI-H2085 = system: NCI-H2085
How it was run: as §1

NCI-H2087 = system: NCI-H2087
How it was run: as §1

NCI-H2342 = system: NCI-H2342
How it was run: as §1

NCI-H358 = system: NCI-H358
How it was run: as §1

NCI-H647 = system: NCI-H647
How it was run: as §1

PC-3 [JPC-3] = system: PC-3 [JPC-3]
How it was run: as §1

SW 1573 = system: SW 1573
How it was run: as §1

CC1(C)CCC(c2ccc(Cl)cc2)=C(CN2CCN(c3ccc(C(=O)NS(=O)(=O)c4ccc(N[C@H](CCN5CCOCC5)CSc5ccccc5)c(S(=O)(=O)C(F)(F)F)c4)cc3)CC2)C1 [Navitoclax] + CCNC(=O)c1noc(-c2cc(C(C)C)c(O)cc2O)c1-c1ccc(CN2CCOCC2)cc1 [Luminespib] (partner 0.01 µM)
relative viability (201T; first compound 0.005 µM): 1.05
relative viability (201T; first compound 0.01581 µM): 1.1
relative viability (201T; first compound 0.05 µM): 0.982
relative viability (201T; first compound 0.1581 µM): 1.03
relative viability (201T; first compound 0.5 µM): 1.08
relative viability (BEN; first compound 0.005 µM): 0.269
relative viability (BEN; first compound 0.01581 µM): 0.271
relative viability (BEN; first compound 0.05 µM): 0.22
relative viability (BEN; first compound 0.1581 µM): 0.266
relative viability (BEN; first compound 0.5 µM): 0.0778
relative viability (COR-L 105; first compound 0.005 µM): 0.801
relative viability (COR-L 105; first compound 0.01581 µM): 1.2
relative viability (COR-L 105; first compound 0.05 µM): 0.974
relative viability (COR-L 105; first compound 0.1581 µM): 0.701
relative viability (COR-L 105; first compound 0.5 µM): 0.544
relative viability (EKVX; first compound 0.005 µM): 0.94
relative viability (EKVX; first compound 0.01581 µM): 1.01
relative viability (EKVX; first compound 0.05 µM): 0.663
relative viability (EKVX; first compound 0.1581 µM): 0.784
relative viability (EKVX; first compound 0.5 µM): 0.785
relative viability (EPLC-272H; first compound 0.005 µM): 0.391
relative viability (EPLC-272H; first compound 0.05 µM): 1
relative viability (EPLC-272H; first compound 0.1581 µM): 0.647
relative viability (EPLC-272H; first compound 0.5 µM): 0.133
relative viability (H3255; first compound 0.005 µM): 0.874
relative viability (H3255; first compound 0.01581 µM): 0.877
relative viability (H3255; first compound 0.05 µM): 0.834
relative viability (H3255; first compound 0.1581 µM): 0.869
relative viability (H3255; first compound 0.5 µM): 0.741
relative viability (HCC-44; first compound 0.05 µM): 1.33
relative viability (HCC-44; first compound 0.5 µM): 0.823
relative viability (HCC-827; first compound 0.005 µM): 0.681
relative viability (HCC-827; first compound 0.01581 µM): 0.699
relative viability (HCC-827; first compound 0.05 µM): 0.49
relative viability (HCC-827; first compound 0.1581 µM): 0.58
relative viability (HCC-827; first compound 0.5 µM): 0.69
relative viability (HOP-62; first compound 0.005 µM): 0.913
relative viability (HOP-62; first compound 0.01581 µM): 0.937
relative viability (HOP-62; first compound 0.05 µM): 0.895
relative viability (HOP-62; first compound 0.1581 µM): 0.894
relative viability (HOP-62; first compound 0.5 µM): 0.993
relative viability (LCLC-97TM1; first compound 0.005 µM): 0.74
relative viability (LCLC-97TM1; first compound 0.01581 µM): 0.8
relative viability (LCLC-97TM1; first compound 0.05 µM): 0.733
relative viability (LCLC-97TM1; first compound 0.1581 µM): 0.779
relative viability (LCLC-97TM1; first compound 0.5 µM): 0.857
relative viability (LOU-NH91; first compound 0.005 µM): 0.349
relative viability (LOU-NH91; first compound 0.01581 µM): 0.362
relative viability (LOU-NH91; first compound 0.05 µM): 0.327
relative viability (LOU-NH91; first compound 0.1581 µM): 0.321
relative viability (LOU-NH91; first compound 0.5 µM): 0.275
relative viability (LU99A; first compound 0.005 µM): 0.221
relative viability (LU99A; first compound 0.01581 µM): 0.217
relative viability (LU99A; first compound 0.05 µM): 0.154
relative viability (LU99A; first compound 0.1581 µM): 0.168
relative viability (LU99A; first compound 0.5 µM): 0.274
relative viability (NCI-H1395; first compound 0.005 µM): 0.741
relative viability (NCI-H1395; first compound 0.01581 µM): 0.836
relative viability (NCI-H1395; first compound 0.05 µM): 0.714
relative viability (NCI-H1395; first compound 0.1581 µM): 0.577
relative viability (NCI-H1395; first compound 0.5 µM): 0.793
relative viability (NCI-H1437; first compound 0.005 µM): 1.12
relative viability (NCI-H1437; first compound 0.01581 µM): 1.1
relative viability (NCI-H1437; first compound 0.05 µM): 1.09
relative viability (NCI-H1437; first compound 0.1581 µM): 1.14
relative viability (NCI-H1437; first compound 0.5 µM): 1.01
relative viability (NCI-H1666; first compound 0.005 µM): 0.881
relative viability (NCI-H1666; first compound 0.01581 µM): 0.969
relative viability (NCI-H1666; first compound 0.05 µM): 0.989
relative viability (NCI-H1666; first compound 0.1581 µM): 1.05
relative viability (NCI-H1666; first compound 0.5 µM): 1.05
relative viability (NCI-H1975; first compound 0.005 µM): 0.24
relative viability (NCI-H1975; first compound 0.01581 µM): 0.309
relative viability (NCI-H1975; first compound 0.05 µM): 0.191
relative viability (NCI-H1975; first compound 0.1581 µM): 0.118
relative viability (NCI-H1975; first compound 0.5 µM): 0.132
relative viability (NCI-H2085; first compound 0.005 µM): 0.488
relative viability (NCI-H2085; first compound 0.01581 µM): 0.538
relative viability (NCI-H2085; first compound 0.05 µM): 0.484
relative viability (NCI-H2085; first compound 0.1581 µM): 0.46
relative viability (NCI-H2085; first compound 0.5 µM): 0.383
relative viability (NCI-H2087; first compound 0.005 µM): 0.207
relative viability (NCI-H2087; first compound 0.01581 µM): 0.204
relative viability (NCI-H2087; first compound 0.1581 µM): 0.153
relative viability (NCI-H2087; first compound 0.5 µM): 0.208
relative viability (NCI-H2342; first compound 0.005 µM): 0.683
relative viability (NCI-H2342; first compound 0.01581 µM): 0.747
relative viability (NCI-H2342; first compound 0.05 µM): 0.476
relative viability (NCI-H2342; first compound 0.1581 µM): 0.723
relative viability (NCI-H2342; first compound 0.5 µM): 0.683
relative viability (NCI-H358; first compound 0.005 µM): 0.418
relative viability (NCI-H358; first compound 0.01581 µM): 0.325
relative viability (NCI-H358; first compound 0.05 µM): 0.264
relative viability (NCI-H358; first compound 0.1581 µM): 0.388
relative viability (NCI-H358; first compound 0.5 µM): 0.242
relative viability (NCI-H647; first compound 0.005 µM): 0.271
relative viability (NCI-H647; first compound 0.01581 µM): 0.215
relative viability (NCI-H647; first compound 0.05 µM): 0.17
relative viability (NCI-H647; first compound 0.1581 µM): 0.206
relative viability (NCI-H647; first compound 0.5 µM): 0.133
relative viability (PC-3 [JPC-3]; first compound 0.005 µM): 0.738
relative viability (PC-3 [JPC-3]; first compound 0.01581 µM): 0.807
relative viability (PC-3 [JPC-3]; first compound 0.05 µM): 0.765
relative viability (PC-3 [JPC-3]; first compound 0.1581 µM): 0.684
relative viability (PC-3 [JPC-3]; first compound 0.5 µM): 0.724
relative viability (SW 1573; first compound 0.005 µM): 0.145
relative viability (SW 1573; first compound 0.01581 µM): 0.213
relative viability (SW 1573; first compound 0.05 µM): 0.429
relative viability (SW 1573; first compound 0.1581 µM): 0.212
relative viability (SW 1573; first compound 0.5 µM): 0.206
